Test results reported in patent publication US20220064138A1, “MACROLIDE BREFELDIN A ESTER DERIVATIVES AND USE THEREOF” (OCEAN UNIVERSITY OF CHINA, priority 2019, published 2022).

Legend:
Assay in all cases: Cell proliferation assay (CCK-8)
Assay type in all cases: cell-based
[1] = test system: human breast cancer MCF7 cells; settings: MCF7, 72 h
From the text: (§1) CCK-8 method: The CCK-8 method is a highly sensitive, non-radioactive colorimetric assay for the determination of the number of viable cells in cell proliferation or cytotoxicity assays. The orange formazan dye produced by the bioreduction of CCK-8 by intracellular dehydrogenase is soluble in the cell culture medium, and the amount of formazan dye produced is proportional to the number of living cells. The kit used in this method is the tetrazolium salt-WST-8 (2-(2-methoxy-4-nitrophenyl)-3-(4-nitrophenyl)-5-(2,4-disulfophenyl)-2H-tetrazolium monosodium salt) developed by Dojindo Chemical Research Institute (Dojindo), which is capable of being reduced to a water-soluble formazan dye in the presence of the electronic carrier 1-Methoxy PMS.
(§2) Human cervical cancer Hela cells, pancreatic cancer PANC-1 cells, esophageal cancer Eca-109 cells, human leukemia K562 cells, human lung cancer A549 cells, human liver cancer HepG2 cells, human gastric cancer MKN-45 cells, human breast cancer MCF7 cells were cultured in DMEM medium containing 10% FBS (fetal bovine serum), 100 U/mL penicillin and 100 μg/ml streptomycin. Hepatocellular carcinoma cells Bel-7402 were cultured in RPMI-1640 medium containing 10% FBS (fetal bovine serum), 100 U/ml penicillin and 100 μg/ml streptomycin. All cells were placed in a cell culture incubator at 37° C. with 5% CO2. Cells fluid was changed every 3-5 days, and after 80% cell fusion, trypsin digestion and passaging were performed to keep the cells in good logarithmic growth phase.
(§3) All the samples to be tested were dissolved in DMSO.
(§4) Cells in logarithmic growth phase were inoculated in 96-well plates with 5000 cells/well respectively, and after 24 h of incubation, samples were added (final concentrations as shown in the table), and biplicate wells were set up for each sample. The amount of solvent of DMSO was not higher than 2‰. After 72 h, 10 μL of CCK-8 solution was added to each well and incubated for 1.5˜3 h at 37° C. The OD value at 450 nm was measured on an plate reader.
(§5) Inhibition rate (%)=(1−[(OD450 dosed well−OD450 blank well)/(OD450 control well−OD450 blank well)])×100%
(§6) The fitted IC50 values were calculated using the log (inhibitor) vs. response-Variable slop analysis method in GraphPad Prism software.

[2] = test system: human lung cancer A549 cells; settings: A549, 72 h
From the text: as §1, §2, §3, §4, §5, §6

[3] = test system: Human cervical cancer Hela cells; settings: 72 h
From the text: as §1, §2, §3, §4, §5, §6

[4] = test system: human leukemia K562 cells; settings: K562, 72 h
From the text: as §1, §2, §3, §4, §5, §6

[5] = test system: pancreatic cancer PANC-1 cells; settings: Homo sapiens, PANC-1, 72 h
From the text: as §1, §2, §3, §4, §5, §6

[6] = test system: human liver cancer HepG2 cells; settings: HepG2, 72 h
From the text: as §1, §2, §3, §4, §5, §6

[7] = test system: esophageal cancer Eca-109 cells; settings: Homo sapiens, Eca-109, 72 h
From the text: as §1, §2, §3, §4, §5, §6

[8] = test system: human gastric cancer MKN-45 cells; settings: MKN-45, 72 h
From the text: as §1, §2, §3, §4, §5, §6

Row | Compound | IC50 [1] [nM] | IC50 [2] [nM] | IC50 [3] [nM] | IC50 [4] [nM] | IC50 [5] [nM] | IC50 [6] [nM] | IC50 [7] [nM] | IC50 [8] [nM]
1 | C[C@H]1CCC/C=C/[C@@H]2C[C@H](O)C[C@H]2[C@H](OC(=O)/C=C/c2ccc(C(F)(F)F)cc2)/C=C/C(=O)O1 [Compound 13b, 4-O-(4-trifluoromethylcinnamic acid)acyl BFA] | 100 to 1000 | 100 to 1000 | 100 to 1000 | 100 to 1000 | 100 to 1000 | 100 to 1000 | 100 to 1000 | 100 to 1000
2 | COc1cc(/C=C/C(=O)O[C@@H]2/C=C/C(=O)O[C@@H](C)CCC/C=C/[C@@H]3C[C@H](O)C[C@H]32)cc(OC)c1OC [Compound 11b, 4-O-(3,4,5-trimethoxycinnamic acid)acyl BFA] | 100 to 1000 | 100 to 1000 | 1000 to 10000 | 100 to 1000 | 100 to 1000 | 100 to 1000 | 1000 to 10000 | 100 to 1000
3 | C[C@H]1CCC/C=C/[C@@H]2C[C@H](OC(=O)/C=C/c3ccccc3Br)C[C@H]2[C@H](O)/C=C/C(=O)O1 [Compound 4a, 7-O-(2-bromocinnamic acid)acyl BFA] | 100 to 1000 | 100 to 1000 | 100 to 1000 | 100 to 1000 | 100 to 1000 | 100 to 1000 | 100 to 1000 | 100 to 1000
4 | C[C@H]1CCC/C=C/[C@@H]2C[C@H](O)C[C@H]2[C@H](OC(=O)/C=C/c2ccccn2)/C=C/C(=O)O1 [Compound 15b] | 100 to 1000 | 100 to 1000 | 100 to 1000 | 100 to 1000 | < 100 | < 100 | 100 to 1000 | 100 to 1000
5 | Cc1cccc(/C=C/C(=O)O[C@@H]2C[C@@H]3[C@H](/C=C/CCC[C@H](C)OC(=O)/C=C/[C@H]3OC(=O)/C=C/c3cccc(C)c3)C2)c1 [Compound 6c, 4,7-O-bis(3-methylcinnamic acid)acyl BFA] | 1000 to 10000 | 1000 to 10000 | 1000 to 10000 | 1000 to 10000 | 1000 to 10000 | 1000 to 10000 | 100 to 1000 | 100 to 1000
6 | C[C@H]1CCC/C=C/[C@@H]2C[C@H](OC(=O)/C=C/c3ccc(F)cc3)C[C@H]2[C@H](OC(=O)/C=C/c2ccc(F)cc2)/C=C/C(=O)O1 [Compound 3c, 4,7-O-bis(4-fluorocinnamic acid)acyl BFA] | 1000 to 10000 | 100 to 1000 | 1000 to 10000 | 1000 to 10000 | 100 to 1000 | 1000 to 10000 | 1000 to 10000 | 1000 to 10000
7 | C[C@H]1CCC/C=C/[C@@H]2C[C@H](OC(=O)/C=C/c3ccc(C(F)(F)F)cc3)C[C@H]2[C@H](OC(=O)/C=C/c2ccc(C(F)(F)F)cc2)/C=C/C(=O)O1 [Compound 13c, 4,7-O-bis(4-trifluoromethylcinnamic acid)acyl BFA] | 1000 to 10000 | 100 to 1000 | 1000 to 10000 | 100 to 1000 | 1000 to 10000 | 1000 to 10000 | 1000 to 10000 | 1000 to 10000
8 | COc1cc(/C=C/C(=O)O[C@@H]2C[C@H]3[C@H](O)/C=C/C(=O)O[C@@H](C)CCC/C=C/[C@@H]3C2)cc(OC)c1OC [Compound 11a, 7-O-(3,4,5-trimethoxycinnamic acid)acyl BFA] | 100 to 1000 | 100 to 1000 | 1000 to 10000 | 100 to 1000 | 100 to 1000 | 100 to 1000 | 1000 to 10000 | 100 to 1000
9 | C[C@H]1CCC/C=C/[C@@H]2C[C@H](OC(=O)/C=C/c3cnc4ccccc4c3)C[C@H]2[C@H](O)/C=C/C(=O)O1 [Compound 17a, 7-O-(3-(quinoline-3-yl)acrylic acid)acyl BFA] | 100 to 1000 | 100 to 1000 | 100 to 1000 | 100 to 1000 | < 100 | < 100 | 100 to 1000 | 100 to 1000
10 | Cc1cccc(/C=C/C(=O)O[C@@H]2/C=C/C(=O)O[C@@H](C)CCC/C=C/[C@@H]3C[C@H](O)C[C@H]32)c1 [Compound 6b, 4-O-(3-methylcinnamic acid)acyl BFA] | 100 to 1000 | 100 to 1000 | 100 to 1000 | 100 to 1000 | 100 to 1000 | 100 to 1000 | 100 to 1000 | 100 to 1000
11 | Cc1ccccc1/C=C/C(=O)O[C@@H]1C[C@H]2[C@H](O)/C=C/C(=O)O[C@@H](C)CCC/C=C/[C@@H]2C1 [Compound 8a, 7-O-(2-methylcinnamic acid)acyl BFA] | 100 to 1000 | 100 to 1000 | 1000 to 10000 | 1000 to 10000 | 100 to 1000 | 1000 to 10000 | 100 to 1000 | 100 to 1000
12 | C[C@H]1CCC/C=C/[C@@H]2C[C@H](O)C[C@H]2[C@H](OC(=O)/C=C/c2ccccc2F)/C=C/C(=O)O1 [Compound 2b, 4-O-(2-fluorocinnamic acid)acyl BFA] | 100 to 1000 | 100 to 1000 | 1000 to 10000 | 100 to 1000 | 100 to 1000 | 100 to 1000 | 1000 to 10000 | 100 to 1000
13 | Cc1ccc(/C=C/C(=O)O[C@@H]2C[C@@H]3[C@H](/C=C/CCC[C@H](C)OC(=O)/C=C/[C@H]3OC(=O)/C=C/c3ccc(C)cc3)C2)cc1 [Compound 7c, 4,7-O-bis(4-methylcinnamic acid)acyl BFA] | 1000 to 10000 | 1000 to 10000 | 1000 to 10000 | 1000 to 10000 | 1000 to 10000 | 1000 to 10000 | 100 to 1000 | 100 to 1000
14 | Cc1ccccc1/C=C/C(=O)O[C@@H]1C[C@@H]2[C@H](/C=C/CCC[C@H](C)OC(=O)/C=C/[C@H]2OC(=O)/C=C/c2ccccc2C)C1 [Compound 8c, 4,7-O-bis(2-methylcinnamic acid)acyl BFA] | 1000 to 10000 | 1000 to 10000 | 1000 to 10000 | 1000 to 10000 | 1000 to 10000 | 1000 to 10000 | 100 to 1000 | 100 to 1000
15 | C[C@H]1CCC/C=C/[C@@H]2C[C@H](OC(=O)/C=C/c3ccncc3)C[C@H]2[C@H](OC(=O)/C=C/c2ccncc2)/C=C/C(=O)O1 [Compound 14c] | 1000 to 10000 | 100 to 1000 | 1000 to 10000 | 100 to 1000 | 1000 to 10000 | 100 to 1000 | 1000 to 10000 | 100 to 1000
16 | Cc1ccc(/C=C/C(=O)O[C@@H]2C[C@H]3[C@H](O)/C=C/C(=O)O[C@@H](C)CCC/C=C/[C@@H]3C2)cc1 [Compound 7a, 7-O-(4-methylcinnamic acid)acyl BFA] | 1000 to 10000 | 100 to 1000 | 1000 to 10000 | 1000 to 10000 | 100 to 1000 | 1000 to 10000 | 1000 to 10000 | 100 to 1000
17 | C[C@H]1CCC/C=C/[C@@H]2C[C@H](O)C[C@H]2[C@H](OC(=O)/C=C/c2cnc3ccccc3c2)/C=C/C(=O)O1 [Compound 17b] | 100 to 1000 | 100 to 1000 | 100 to 1000 | 100 to 1000 | < 100 | < 100 | 100 to 1000 | 100 to 1000
18 | C[C@H]1CCC/C=C/[C@@H]2C[C@H](OC(=O)/C=C/c3ccccc3Br)C[C@H]2[C@H](OC(=O)/C=C/c2ccccc2Br)/C=C/C(=O)O1 [Compound 4c, 4,7-O-bis(2-bromocinnamic acid)acyl BFA] | 1000 to 10000 | 100 to 1000 | 100 to 1000 | 1000 to 10000 | 1000 to 10000 | 1000 to 10000 | 1000 to 10000 | 100 to 1000
19 | C[C@H]1CCC/C=C/[C@@H]2C[C@H](OC(=O)/C=C/c3ccccc3F)C[C@H]2[C@H](OC(=O)/C=C/c2ccccc2F)/C=C/C(=O)O1 [Compound 2c, 4,7-O-bis(2-fluorocinnamic acid)acyl BFA] | 1000 to 10000 | 1000 to 10000 | 1000 to 10000 | 100 to 1000 | 1000 to 10000 | 1000 to 10000 | 1000 to 10000 | 100 to 1000
20 | C[C@H]1CCC/C=C/[C@@H]2C[C@H](OC(=O)/C=C/c3ccccn3)C[C@H]2[C@H](OC(=O)/C=C/c2ccccn2)/C=C/C(=O)O1 [Compound 15c] | 100 to 1000 | 100 to 1000 | 1000 to 10000 | 100 to 1000 | 100 to 1000 | 100 to 1000 | 1000 to 10000 | 1000 to 10000
